Assay results: patent US20240376099A1, “COMPOUNDS AND COMPOSITIONS AS INHIBITORS OF ENDOSOMAL TOLL-LIKE RECEPTORS” (Novartis AG, priority 2016, published 2024)

target: T1, TLR8 (Homo sapiens, UniProt Q9NR97); assay: huPBMC TLR8 Antagonist IL-6 TR-FRET Assay; format: cell-based; parameters: Fresh blood was collected from normal human donors; endogenous in cells; host or cells: human PBMCs from fresh donor blood; details: human PBMCs stimulated with ssRNA40 1 μg/ml (DOTAP), 14-16 hrs; IL-6 TR-FRET read-out
T1 sequence (Q9NR97 27-1041): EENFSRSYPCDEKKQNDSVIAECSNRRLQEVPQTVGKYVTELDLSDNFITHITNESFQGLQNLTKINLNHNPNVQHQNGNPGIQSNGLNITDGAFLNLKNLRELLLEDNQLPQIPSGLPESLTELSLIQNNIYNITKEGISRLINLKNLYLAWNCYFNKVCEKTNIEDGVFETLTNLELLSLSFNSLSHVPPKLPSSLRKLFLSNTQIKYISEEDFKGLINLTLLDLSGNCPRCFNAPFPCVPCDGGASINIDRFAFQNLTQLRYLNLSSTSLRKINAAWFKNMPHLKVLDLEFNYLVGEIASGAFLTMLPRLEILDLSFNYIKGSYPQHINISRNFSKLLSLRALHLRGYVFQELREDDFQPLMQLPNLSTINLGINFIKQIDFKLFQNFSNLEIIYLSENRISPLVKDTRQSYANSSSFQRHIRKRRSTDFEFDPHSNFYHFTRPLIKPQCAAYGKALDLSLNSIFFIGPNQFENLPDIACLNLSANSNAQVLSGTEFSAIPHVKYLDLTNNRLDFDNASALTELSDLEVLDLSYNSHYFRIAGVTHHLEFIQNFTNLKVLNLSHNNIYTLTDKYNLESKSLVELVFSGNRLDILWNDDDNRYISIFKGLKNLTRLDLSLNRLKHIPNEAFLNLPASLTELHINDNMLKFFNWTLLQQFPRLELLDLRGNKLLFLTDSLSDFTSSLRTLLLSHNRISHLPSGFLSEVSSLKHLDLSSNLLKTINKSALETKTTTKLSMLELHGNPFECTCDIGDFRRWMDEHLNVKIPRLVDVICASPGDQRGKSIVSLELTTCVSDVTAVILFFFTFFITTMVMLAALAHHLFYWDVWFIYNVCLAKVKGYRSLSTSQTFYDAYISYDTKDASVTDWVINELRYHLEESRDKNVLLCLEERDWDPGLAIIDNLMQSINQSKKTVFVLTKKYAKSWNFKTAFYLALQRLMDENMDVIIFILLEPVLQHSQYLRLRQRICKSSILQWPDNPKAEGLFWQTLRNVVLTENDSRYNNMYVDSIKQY
Method in brief: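 Human PBMCs from fresh donor blood (150,000 cells/well) stimulated 14–16 h at 37 °C with DOTAP-complexed ssRNA40 (final 1 μg/ml for TLR8, 10 μg/mL for TLR7) or ODN2216 (final 0.3 μM, TLR9), 0.25% DMSO, ten-point 1/3 compound dilutions. Supernatant IL-6 read by HTRF (TLR8); IFNα by IFNα2b AlphaLISA (TLR7/TLR9).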

For `Cc1cc(N2CCc3c(c(C(F)(F)F)nn3CC34CCC(N)(CC3)CC4)C2)c2cnn(C)c2n1` [compound 45, 4-((5-(1,6-dimethyl-1H-pyrazolo[3,4-b]pyridin-4-yl)-3-(trifluoromethyl)-4,5,6,7-tetrahydro-1H-pyrazolo[4,3-c]pyridin-1-yl)methyl)bicyclo[2.2.2]octan-1-amine], which IC50 is on record?
Its IC50 is 630 nM.

For `Cc1cc(N2CCc3c(c(C)nn3CC34CCC(NCC(=O)N5CCCCC5)(CC3)CC4)C2)c2cnn(C)c2n1` [compound 99, 2-((4-((5-(1,6-dimethyl-1H-pyrazolo[3,4-b]pyridin-4-yl)-3-methyl-4,5,6,7-tetrahydro-1H-pyrazolo[4,3-c]pyridin-1-yl)methyl)bicyclo[2.2.2]octan-1-yl)amino)-1-(piperidin-1-yl)ethanone], which IC50 is on record?
The IC50 was 130 nM.

Which IC50 does the source give for `Cc1cc(N2CCc3c(c(C)nn3CC34CCC(NC(=O)CN5CCCC5)(CC3)CC4)C2)c2cnn(C)c2n1` [compound 100, N-(4-((5-(1,6-dimethyl-1H-pyrazolo[3,4-b]pyridin-4-yl)-3-methyl-4,5,6,7-tetrahydro-1H-pyrazolo[4,3-c]pyridin-1-yl)methyl)bicyclo[2.2.2]octan-1-yl)-2-(pyrrolidin-1-yl)acetamide] here?
Its IC50 is 15 nM.

With `COCCNC12CCC(Cn3nc(C)c4c3CCN(c3cc(C)nc5c3cnn5C)C4)(CC1)OC2` [compound 102, 1-((5-(1,6-dimethyl-1H-pyrazolo[3,4-b]pyridin-4-yl)-3-methyl-4,5,6,7-tetrahydro-1H-pyrazolo[4,3-c]pyridin-1-yl)methyl)-N-(2-methoxyethyl)-2-oxabicyclo[2.2.2]octan-4-amine] as the compound, how does the IC50 read?
The IC50 was 366 nM.

How did the IC50 turn out when `Cc1cc(N2CCc3c(c(C)nn3CC34CCC(NC(=O)CCN(C)C)(CC3)CC4)C2)c2cnn(C)c2n1` [compound 105, N-(4-((5-(1,6-dimethyl-1H-pyrazolo[3,4-b]pyridin-4-yl)-3-methyl-4,5,6,7-tetrahydro-1H-pyrazolo[4,3-c]pyridin-1-yl)methyl)bicyclo[2.2.2]octan-1-yl)-3-(dimethylamino)propanamide] was run?
The IC50 was 27 nM.

For `Cc1cc(N2CCc3c(c(C)nn3CC34CCC(NCC(=O)N5CCCC5)(CC3)CC4)C2)c2cnn(C)c2n1` [compound 106, 2-((4-((5-(1,6-dimethyl-1H-pyrazolo[3,4-b]pyridin-4-yl)-3-methyl-4,5,6,7-tetrahydro-1H-pyrazolo[4,3-c]pyridin-1-yl)methyl)bicyclo[2.2.2]octan-1-yl)amino)-1-(pyrrolidin-1-yl)ethanone], which IC50 is on record?
Its IC50 is 168 nM.

`Cc1cc(N2CCc3c(c(C)nn3CC34CCC(N5CCO[C@H](C)C5)(CC3)CC4)C2)c2cnn(C)c2n1` [compound 107, (R)-4-(4-((5-(1,6-dimethyl-1H-pyrazolo[3,4-b]pyridin-4-yl)-3-methyl-4,5,6,7-tetrahydro-1H-pyrazolo[4,3-c]pyridin-1-yl)methyl)bicyclo[2.2.2]octan-1-yl)-2-methylmorpholine] was tested. Which IC50 did it give?
Its IC50 is 6 nM.

With `Cc1cc(N2CCc3c(c(C)nn3CC34CCC(N5CCO[C@@H](C)C5)(CC3)CC4)C2)c2cnn(C)c2n1` [compound 109, (S)-4-(4-((5-(1,6-dimethyl-1H-pyrazolo[3,4-b]pyridin-4-yl)-3-methyl-4,5,6,7-tetrahydro-1H-pyrazolo[4,3-c]pyridin-1-yl)methyl)bicyclo[2.2.2]octan-1-yl)-2-methylmorpholine] as the compound, how does the IC50 read?
The IC50 was 16 nM.

Which IC50 does the source give for `Cc1cc(N2CCc3c(c(C)nn3CC34CCC(N5C[C@@H](C)O[C@@H](C)C5)(CC3)CC4)C2)c2cnn(C)c2n1` [compound 110, (2S,6R)-4-(4-((5-(1,6-dimethyl-1H-pyrazolo[3,4-b]pyridin-4-yl)-3-methyl-4,5,6,7-tetrahydro-1H-pyrazolo[4,3-c]pyridin-1-yl)methyl)bicyclo[2.2.2]octan-1-yl)-2,6-dimethylmorpholine] here?
The IC50 was 16 nM.

For `Cc1cc(N2CCc3c(c(C)nn3CC34CCC(N5C[C@H](C)O[C@@H](C)C5)(CC3)CC4)C2)c2cnn(C)c2n1` [compound 111, (2S,6S)-4-(4-((5-(1,6-dimethyl-1H-pyrazolo[3,4-b]pyridin-4-yl)-3-methyl-4,5,6,7-tetrahydro-1H-pyrazolo[4,3-c]pyridin-1-yl)methyl)bicyclo[2.2.2]octan-1-yl)-2,6-dimethylmorpholine], which IC50 is on record?
The IC50 was 39 nM.

For `Cc1cc(N2CCc3c(c(C)nn3CC34CCC(NCC5CCC5)(CC3)CO4)C2)c2cnn(C)c2n1` [compound 112, N-(cyclobutylmethyl)-1-((5-(1,6-dimethyl-1H-pyrazolo[3,4-b]pyridin-4-yl)-3-methyl-4,5,6,7-tetrahydro-1H-pyrazolo[4,3-c]pyridin-1-yl)methyl)-2-oxabicyclo[2.2.2]octan-4-amine], which IC50 is on record?
Its IC50 is 56 nM.

With `Cc1cc(N2CCc3c(c(C)nn3CC34CCC(N5C[C@@H](C)O[C@H](C)C5)(CC3)CC4)C2)c2cnn(C)c2n1` [compound 113, (2R,6R)-4-(4-((5-(1,6-dimethyl-1H-pyrazolo[3,4-b]pyridin-4-yl)-3-methyl-4,5,6,7-tetrahydro-1H-pyrazolo[4,3-c]pyridin-1-yl)methyl)bicyclo[2.2.2]octan-1-yl)-2,6-dimethylmorpholine] as the compound, how does the IC50 read?
Its IC50 is 16 nM.

With `CCNCC(=O)NC12CCC(Cn3nc(C)c4c3CCN(c3cc(C)nc5c3cnn5C)C4)(CC1)CC2` [compound 114, N-(4-((5-(1,6-dimethyl-1H-pyrazolo[3,4-b]pyridin-4-yl)-3-methyl-4,5,6,7-tetrahydro-1H-pyrazolo[4,3-c]pyridin-1-yl)methyl)bicyclo[2.2.2]octan-1-yl)-2-(ethylamino)acetamide] as the compound, how does the IC50 read?
Its IC50 is 15 nM.

With `Cc1cc(N2CCc3c(c(C)nn3CC34CCC(NC(=O)CCN)(CC3)CC4)C2)c2cnn(C)c2n1` [compound 115, 3-amino-N-(4-((5-(1,6-dimethyl-1H-pyrazolo[3,4-b]pyridin-4-yl)-3-methyl-4,5,6,7-tetrahydro-1H-pyrazolo[4,3-c]pyridin-1-yl)methyl)bicyclo[2.2.2]octan-1-yl)propanamide] as the compound, how does the IC50 read?
Its IC50 is 245 nM.

Which IC50 does the source give for `Cc1cc(N2CCc3c(c(C)nn3CC34CCC(N5CC6(COC6)C5)(CC3)CC4)C2)c2cnn(C)c2n1` [compound 116, 6-(4-((5-(1,6-dimethyl-1H-pyrazolo[3,4-b]pyridin-4-yl)-3-methyl-4,5,6,7-tetrahydro-1H-pyrazolo[4,3-c]pyridin-1-yl)methyl)bicyclo[2.2.2]octan-1-yl)-2-oxa-6-azaspiro[3.3]heptane] here?
The IC50 was 68 nM.

With `CN[C@H](C)C(=O)NC12CCC(Cn3nc(C)c4c3CCN(c3cc(C)nc5c3cnn5C)C4)(CC1)CC2` [compound 117, (R)-N-(4-((5-(1,6-dimethyl-1H-pyrazolo[3,4-b]pyridin-4-yl)-3-methyl-4,5,6,7-tetrahydro-1H-pyrazolo[4,3-c]pyridin-1-yl)methyl)bicyclo[2.2.2]octan-1-yl)-2-(methylamino)propanamide] as the compound, how does the IC50 read?
The IC50 was 236 nM.

Which IC50 does the source give for `CN[C@@H](C)C(=O)NC12CCC(Cn3nc(C)c4c3CCN(c3cc(C)nc5c3cnn5C)C4)(CC1)CC2` [compound 118] here?
The IC50 was 197 nM.

Which IC50 does the source give for `CNCC(=O)NC12CCC(Cn3nc(C)c4c3CCN(c3cc(C)nc5c3cnn5C)C4)(CC1)CC2` [compound 121, N-(4-((5-(1,6-dimethyl-1H-pyrazolo[3,4-b]pyridin-4-yl)-3-methyl-4,5,6,7-tetrahydro-1H-pyrazolo[4,3-c]pyridin-1-yl)methyl)bicyclo[2.2.2]octan-1-yl)-2-(methylamino)acetamide] here?
The IC50 was 39 nM.

`Cc1cc(N2CCc3c(c(C)nn3CC34CCC(NCC(C)(C)O)(CC3)CC4)C2)c2cnn(C)c2n1` [compound 123, 1-((4-((5-(1,6-dimethyl-1H-pyrazolo[3,4-b]pyridin-4-yl)-3-methyl-4,5,6,7-tetrahydro-1H-pyrazolo[4,3-c]pyridin-1-yl)methyl)bicyclo[2.2.2]octan-1-yl)amino)-2-methylpropan-2-ol] was tested. Which IC50 did it give?
Its IC50 is 121 nM.

How did the IC50 turn out when `CCNCC(=O)NC12CCC(Cn3nc(C)c4c3CCN(c3cc(C)nc5cn[nH]c35)C4)(CC1)CC2` [compound 124, 2-(ethylamino)-N-(4-((3-methyl-5-(5-methyl-1H-pyrazolo[4,3-b]pyridin-7-yl)-4,5,6,7-tetrahydro-1H-pyrazolo[4,3-c]pyridin-1-yl)methyl)bicyclo[2.2.2]octan-1-yl)acetamide] was run?
The IC50 was greater than 10000 nM.
